We go through 2 compounds from patent US20230104690A1, “MATRIX METALLOPROTEINASE INHIBITORS (MMPIs)” (Brandon University, priority 2020, published 2023).

“Also recorded” adds a separate entry of the source.

For series [1], the target named is T1, MMP3 (Rattus norvegicus, UniProt P03957).
T1 construct: endogenous in cells; host or cells: C6-13 (C6 glioma clone stably expressing Cx43), conditioned serum-free medium
T1 sequence (P03957 98-475): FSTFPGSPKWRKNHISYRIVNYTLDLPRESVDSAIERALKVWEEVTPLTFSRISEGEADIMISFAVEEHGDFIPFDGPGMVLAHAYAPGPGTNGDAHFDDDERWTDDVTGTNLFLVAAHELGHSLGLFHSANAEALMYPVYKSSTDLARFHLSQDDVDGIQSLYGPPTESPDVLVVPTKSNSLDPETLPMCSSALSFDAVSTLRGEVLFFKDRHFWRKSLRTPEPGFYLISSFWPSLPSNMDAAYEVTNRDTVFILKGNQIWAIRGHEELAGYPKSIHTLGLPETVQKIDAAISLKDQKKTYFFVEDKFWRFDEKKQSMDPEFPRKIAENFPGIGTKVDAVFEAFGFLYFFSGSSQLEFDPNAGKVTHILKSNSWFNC
Nature of the series: NFF-3 fluorescence assay in C6-13 (C6-Cx43) glioma conditioned media. It is filed as biochemical. Conditions: 50 μM and 100 μM, over six hours, relative to untreated controls. How it is done: Glioma Cell Culture. […] Anal Bioanal Chem 2010, 398 (1), 477-87). […] Zymography. […] SDS-PAGE/Western Blotting. Conditioned media was collected and chilled on ice. […] Proteins were pelleted by centrifugation (12 minutes, 4800 g). Proteins were suspended in SDS-PAGE loading buffer. […] NFF-3 Fluorescence Assay. […] After conditioning, the media was collected. Each experimental condition had its own control condition. […] The experiment was conducted at 37° C. […] The docking of MMP Inhibitors.
The synthesis of the MMP Inhibitors and NFF3 analysis. The leucine-tryptophan (Leu-Trp) backbone, AP-1, and AP-2 were synthesized. All synthesized compounds were analyzed by mass spectrometry (FIG. 3). The NFF-3 assay was used to determine the biological inhibition of MMP-3 activity for ilomastat and synthesized compounds, Leu-Trp, and AP-1 relative to untreated controls. […] Linear responses of MMP3 activity was robustly measured from about 30 to about 300 minutes. All compounds were tested at a concentration of 50 μM and 100 μM, and compared to determine MMP3 suppression. From FIG. 6, concentration dependent inhibition was observed.

Series [2] deals with C6 glioma cells. As to conditions: ≤100 uM, propidium iodide stain, data not shown. From the text:
(§1) Glioma Cell Culture. The C6 glioma line (American Type Culture Collection, ATCC) maintains many characteristics of GBM including cancer stem cell behavior ability to generate GBMs in rats upon injection in the brain (Grobben, B.; De Deyn, P. P.; Slegers, H., Rat C6 glioma as experimental model system for the study of glioblastoma growth and invasion. Cell Tissue Res 2002, 310 (3), 257-70; Zheng, X.; Shen, G.; Yang, X.; Liu, W., Most C6 cells are cancer stem cells: evidence from clonal and population analyses. Cancer Res 2007, 67 (8), 3691-7; and Beljebbar, A.; Dukic, S.; Amharref, N.; Manfait, M., Ex vivo and in vivo diagnosis of C6 glioblastoma development by Raman spectroscopy coupled to a microprobe. Anal Bioanal Chem 2010, 398 (1), 477-87). […] Cell Mol Neurobiol 1992, 12 (2), 163-75.) Glioma cells were maintained at 37° C., 95% air and 5% CO2 in a humidified incubator. Cells were cultivated in high glucose DMEM (4.0 g/L, ThermoFisher Scientific) containing L-glutamine (4.0 mM), antibiotics (penicillin, 100 IU/mL; streptomycin, 100 μg/mL) and 10% fetal bovine serum (FBS; Gibco). For collection of conditioned media, cells were plated in 6-well plate (200,000 cells/well) and grown to 80% confluency over the course of 3 days. […] Protein concentration was determined by BCA assay and samples suspended in SDS loading buffer (no DTT and without boiling). […]

In series [3] the target is T1, MMP3. Description: Gelatin zymography of C6-13 conditioned media. As to conditions: ilomastat 0-100 uM, 0.1% gelatin. It is filed as cell-based.
From the text: as §1

`CNC(=O)[C@H](Cc1c[nH]c2ccccc12)NC(=O)[C@@H](CC(=O)NO)CC(C)C` [Ilomastat]: in series [1], the “Inhibition of MMP-3 activity (NFF-3 fluorescence)” value was “perform better than Leu-Trp at inhibiting MMP-3”. Further, the Cell death in series [2] is under 1%. In addition, in series [3], the “Loss of MMP3 activity (zymography)” value is “concentration-dependent inhibition of secreted MMP3; also recorded: dose-dependent loss of MMP3 activity”.
On to `CC(C)C[C@H](N)C(=O)N[C@@H](Cc1c[nH]c2ccccc12)C(=O)O` [Leu-Trp], for which, in series [1], the “Inhibition of MMP-3 activity (NFF-3 fluorescence)” value is given as “can act as a competitive inhibitor”.
